System: primary mouse oligodendrocyte precursor cells
Assay: In vitro differentiation of primary mouse OPCs (MBP/O4 immunostaining, MBP western blot)
Format: cell-based
Conditions: for Relative MBP protein expression (ratio MBP to β-actin), western blot: treatment day 0, 2, 4, 6 days, compared to vehicle; for MBP protein expression (IHC), dose dependence / MBP/O4 ratio, dose dependence: Roflumilast 5, 10 μM, Gebr32a 0.5, 1, 5 μM, BPN14770 0.1-10 μM, day 6
Method: (§1) FIG. 3: Inhibition of PDE4 by roflumilast induces differentiation of primary mouse oligodendrocyte precursor cells. Primary mouse oligodendrocyte precursor cells (OPCs) were isolated from p0 C57bl6 pups using the shake off method at day 0. Primary OPCs (150.000 cells/condition) were cultured and stimulated with vehicle (0.1% DMSO) or the PDE4 inhibitor Roflumilast (5 μM, or 10 μM) in 0.1% DMSO. Treatment was repeated on day 2 and day 4, applying a 40% medium change. Cells were fixated at day 6 and stained for O4, a late OPC marker and MBP, an oligodendrocyte marker.
(§2) For western blot, primary OPCs (500.000 cells/condition) were cultured and stimulated with vehicle (0.1% DMSO) or the PDE4 inhibitor Roflumilast (5 μM) in 0.1% DMSO. Treatment was repeated on day 2 and day 4, applying a 40% medium change. […] IHC Data were analyzed using a non-parametric Kruskal-Wallis test with Dunn's multiple comparisons test was performed; p<0.05=*; n=4/group. Western blot data were analyzed using a non-parametric Mann-Withney test; p<0.05; n=4/group.
as §1, with “4:” for “3:”, “PDE4D” for “PDE4”, “Gebr32a” for “roflumilast”, “Gebr32a (0.5” for “Roflumilast (5”, “μM, 1 μM” for “μM,”, “5” for “10”
as §2, with “PDE4D” for “PDE4”, “Gebr32a” for “Roflumilast”
FIG. 5: Inhibition of PDE4D by BPN14770 induces differentiation of primary mouse oligodendrocyte precursor cells. Primary mouse oligodendrocyte precursor cells (OPCs) were isolated from p0 C57bl6 pups using the shake off method at day 0. Primary OPCs (150.000 cells/condition) were cultured and stimulated with vehicle (PBS) or the PDE4D inhibitor BPN14770 (0.1 μM, 0.3 μM, 1 μM, 3 μM and 10 μM) in PBS. Treatment was repeated on day 2 and day 4, applying a 40% medium change. Cells were fixated at day 6 and stained for O4, a late OPC marker and MBP, an oligodendrocyte marker.
Mixed glial cultures were prepared from postnatal day 2 mouse cerebral cortices of C57BLl/6JOIaHsd animals and used to generate OPC-enriched glial cultures by separating the OPCs from the astrocyte monolayer by orbital shaking followed by purification by differential adhesion to plastic. Purified OPCs were seeded on poly-L-lysine (5 μg/ml; Sigma-Aldrich, Bornem, Belgium) coated plates or glass cover slides for staining. Isolated OPCs were plated in 24-well plates (150,000 cells/well Greiner Bio-One, Frickenhausen, Germany) for immunocytochemistry or in 6-well plates (500,000 cells/well Greiner Bio-One, Frickenhausen, Germany) for western blot analyses. OPCs were induced to differentiate for 6 days with Roflumilast (5 μM and 10 μM), Gebr32 (0.5, 1 and 5 μM) or vehicle (DMSO) in SATO-medium supplemented with 2% horse serum (Sigma-Aldrich). Treatment was repeated on day 2 and 4, applying a 40% medium change. All plates were at 37° C. and 8.5% C02.
Western blot was used to assess the total MBP production by OPC treated with roflumilast or Gebr32a compare to the vehicle group. Equal amount of protein sample was separated by 10% sodium dodecyl sulfate polyacrylamide gel electrophorese and blotted onto a PVDF membrane (GE Healthcare, Buckinghamshore, UK). […]

Row | SMILES | Relative MBP protein expression (ratio MBP to β-actin), western blot (5 μM) | MBP protein expression (IHC), dose dependence | MBP/O4 ratio, dose dependence | Relative MBP protein expression, IHC (5 μM, fixated at day 6, compared to vehicle)
1 | OC(CN1CCOCC1)Cn1ccc(-c2ccc(OC(F)F)c(OC3CCCC3)c2)n1 (stereo not shown) [Gebr32a] | three-fold increase | dose-dependent increase | dose-dependent increase | 
2 | O=C(Nc1c(Cl)cncc1Cl)c1ccc(OC(F)F)c(OCC2CC2)c1 [roflumilast] | three-fold increased | increased dose-dependently | increased dose-dependently | three-fold increased
